A short description of one data set: in vivo. Particulars: for concentration at 60 min / concentration at 5 min / concentration at 30 min / AUC(0-t): female, FVB (wildtype), mouse, in vivo; for AUC(0-t): iv. How it is done: The following elacridar nanoparticle suspension was used in these experiments: 5% elacridar w/w plus 1% w/w TPGS, where 2 ml of NP formulation was diluted with 8 ml of 20% TPGS to give a final elacridar concentration of 10 mg/ml.
The drug was mixed, sonicated and administered within 1 h. The dose used was 50 mg/kg (10 μl/g).
The drug was mixed by vortex and administered within 1.5 h. The dose used was 33 mg/kg (10 μl/g).
The drug was administered within 1 h of preparation. The dose used was 5 mg/kg (5 μl/g).
Non-transgenic (wildtype) FVB mice, females, aged 8 to 10 weeks were used. Animals received food and water ad libitum. Mice in the treatment group (n=5) received elacridar NP formulation orally by gavage in the morning (9-10 am). Mice in the control group (n=5) received no elacridar. All mice (treatment and control group) received the therapeutic agent by i.v. injection in the tail vein in the afternoon (3-4 pm). Blood samples (50 μl) were drawn by bleeding from the tip of the tail at 5 min and 30 min after drug administration. At 1 h after API administration the animals were anesthetized using isoflurane and blood was drawn by cardiac puncture. Next, the animal was killed by cervical dislocation and the brains were harvested. Blood was kept on ice until centrifugation (5 min at 5000 g) within 2 h. Brains were kept on ice for weighing and stored at −20° C. until homogenization. Brains were homogenized in 3 ml of 1% w/v of bovine serum albumin in water.
The mice received elacridar at the standard dose of 100 mg/kg. […] The i.v. administration route was selected for the therapeutic agent in order to achieve the most similar plasma exposure of the therapeutic agent between animals receiving therapeutic agent alone or therapeutic agent with elacridar.
Samples were pre-treated as follows. Plasma (5 to 100 μl) was made up to 100 μl with blank human plasma or brain homogenate (100 μl) and pipetted into a 2 ml eppendorf vial. 50 μl of the internal standard (IS) solution (1000 nM of the deuterated analyte) in acetonitrile:water (30:70; v/v) was added. 1000 μl of diethyl ether was added. Tubes were vigorously mixed for at least 5 min then centrifuged (5 min at 5000 g) before being placed in a bath of ethanol with dry-ice in order to freeze the aqueous bottom layer. The organic supernatant was decanted into a clean 1.5 ml Brand vial and evaporated under vacuum in a Speed-Vac (Savant).
For HPLC-MS/MS analyses, the HPLC systems consisted of an Ultimate DGP-3600A pump with a SRD-3600 Solvent Rack and a model WPS-3000TSL autosampler (Dionex, Sunnyvale, Calif., USA). The HPLC column (100×2.1 mm) was packed with 3 um C18 Extend material. The column effluent was guided to an electrospray ionization (ESI) source of an AP13000 mass spectrometer (ABSciex). The mobile phase composition was: Mobile phase A was 0.1% formic acid in water; and Mobile phase B was Methanol (LC-MS quality, Merck).
Pharmacokinetic analyses were performed using the Microsoft Excel add-in program PKsolver (see e.g., Ward K W et al., J Pharmacol Exp Ther 2004; 310: 703-9, which is incorporated herein in its entirety). Calculations for oral administrations were done by the non-compartmental analyses—extravascular model, whereas we used the non-compartmental analysis—bolus model for i.v. injections. The maximum plasma levels (Cmax) were calculated by comparing the means of the plasma levels at each time point. The Tmax is considered the time point at which the Cmax was reached. The half-life (T½) was calculated from the final log-linear part of the plasma concentration-time curves. The area-under-the-curve for the plasma concentration (plasma AUC) was calculated using the linear trapezoidal rule. Both the AUC from time=0 to the last sampling point (48 h) as well as the AUC extrapolated to infinity was calculated. The oral bioavailability was calculated based on the AUC(0-inf) values. Student t-test was used to compare the means of groups where applicable.

Data set [1] can be described thus: Therapeutic agent brain penetration studies (brain concentration). Format: in vivo, wildtype FVB mice. Particulars: for concentration at 1 h: female; for concentration at 1 h / Brain concentration of loperamide, individual animals / Brain concentration of loperamide, mean: 1 h. The method, then: The drug was administered within 1 h of preparation.
Animals received food and water ad libitum.
Samples were pre-treated as follows. […] 1000 μl of diethyl ether was added.

Setting [2] is: Docetaxel plasma concentration, mean.
[3] abbreviates: loperamide 5 mg/kg i.v. with elacridar TPGS NP 100 mg/kg p.o. about 6 h before.
Setting [4] is: imatinib with elacridar, 30 min.
Setting [5] is: imatinib with elacridar, 60 min.

Several values for one entry are separate records, joined by “and”; a condition that tells them apart may be missing. Identical values can stand only once. Like-named read-outs stand apart in the source and are kept apart here.

In the case of `CC(=O)O[C@@]12CO[C@@H]1C[C@H](O)[C@@]1(C)C(=O)[C@H](O)C3=C(C)[C@@H](OC(=O)[C@H](O)[C@@H](NC(=O)OC(C)(C)C)c4ccccc4)C[C@@](O)([C@@H](OC(=O)c4ccccc4)[C@H]21)C3(C)C` [docetaxel], the concentration at 60 min in the data set “in vivo” (Docetaxel plasma concentration, individual animals) amounted to 3030 ng/mL. In “in vivo” (setting [2]), the concentration at 5 min is 206000 ng/mL, the concentration at 30 min was determined as 12200 ng/mL and the concentration at 60 min was 2570 ng/mL. This molecule also had an AUC(0-t) in “in vivo” (33 mg/kg, Docetaxel plasma AUC(0-1 h), individual animals) of 54100 ng·h/mL. This molecule also had an AUC(0-t) in the data set “in vivo” (33 mg/kg, Docetaxel plasma AUC(0-1 h), mean) of 53300 ng·h/mL. In addition, in data set [1] (mouse, in vivo, iv), the complications of dosing entry is “without complications”.
On to `CN(C)C(=O)C(CCN1CCC(O)(c2ccc(Cl)cc2)CC1)(c1ccccc1)c1ccccc1` [loperamide], for which the “change of plasma AUC by concomitant elacridar dosing” value in the data set “in vivo” (AUC 5 min to 1 h, with vs without elacridar NP) was “remained unchanged”. For the same molecule, the concentration at 5 min in “in vivo” (5 mg/kg, Loperamide plasma concentration, mean, loperamide alone, 5 min) worked out at 1030 ng/mL; in “in vivo” (Loperamide plasma concentration, mean, loperamide with elacridar, 5 min), 989 ng/mL. The concentration at 30 min in “in vivo” (5 mg/kg, Loperamide plasma concentration, mean, loperamide alone, 30 min) was found to be 221 ng/mL; in “in vivo” (Loperamide plasma concentration, mean, loperamide with elacridar, 30 min), 184 ng/mL. In addition, the concentration at 60 min in the data set “in vivo” (5 mg/kg, Loperamide plasma concentration, mean, loperamide alone, 60 min) was found to be 81.4 ng/mL; in “in vivo” (Loperamide plasma concentration, mean, loperamide with elacridar, 60 min), 140 ng/mL. The AUC(0-t) is 740 ng·h/mL in “in vivo” (5 mg/kg, Loperamide plasma AUC(0-1 h), individual animals, loperamide alone); 704 ng·h/mL in “in vivo” (5 mg/kg, Loperamide plasma AUC(0-1 h), individual animals, loperamide with elacridar); 747 ng·h/mL in “in vivo” (5 mg/kg, Loperamide plasma AUC(0-1 h), mean, loperamide alone); 744 ng·h/mL in the data set “in vivo” (5 mg/kg, Loperamide plasma AUC(0-1 h), mean, loperamide with elacridar). Also, the “Loperamide plasma AUC(0-1 h), individual animals” value in “in vivo” (loperamide alone) was 43377.5 ng·min/mL and 43440.0 ng·min/mL and 47625.0 ng·min/mL and 45132.5 ng·min/mL; in the data set “in vivo” (loperamide with elacridar), 44405.0 ng·min/mL and 46040.0 ng·min/mL and 45978.8 ng·min/mL. Besides, the “Loperamide plasma concentration, individual animals” value was 2500.0 ng/mL and 430.0 ng/mL and 599.0 ng/mL and 679.0 ng/mL and 925.0 ng/mL in the data set “in vivo” (loperamide alone, 5 min); 191.0 ng/mL and 166.0 ng/mL and 168.0 ng/mL and 354.0 ng/mL and 226.0 ng/mL in “in vivo” (loperamide alone, 30 min); 111.0 ng/mL and 87.5 ng/mL and 88.0 ng/mL and 26.0 ng/mL and 94.5 ng/mL in the data set “in vivo” (loperamide alone, 60 min); 1220.0 ng/mL and 306.0 ng/mL and 376.0 ng/mL and 511.0 ng/mL and 2530.0 ng/mL in the data set “in vivo” (loperamide with elacridar, 5 min); 115.0 ng/mL and 178.0 ng/mL and 163.0 ng/mL and 282.0 ng/mL in “in vivo” (loperamide with elacridar, 30 min); 106.0 ng/mL and 134.0 ng/mL and 270.5 ng/mL and 48.3 ng/mL in “in vivo” (loperamide with elacridar, 60 min). Moreover, the complications of dosing entry is given as “went smoothly” in data set [1] (FVB mice, i.v., control group (no elacridar)); “one animal died within 5 minutes after drug administration, whereas another animal had to be sacrificed at 45 min” in data set [1] (FVB mice, loperamide 5 mg/kg i.v. and elacridar NP 100 mg/kg p.o.). The concentration at 1 h in data set [1] (FVB (wildtype), mouse, in vivo, loperamide 5 mg/kg i.v. with elacridar TPGS NP 100 mg/kg p.o. about 6 h before, read-out: Brain concentration of loperamide, individual animals) was 2910 ng/g; in data set [1] (FVB, mouse, in vivo, 5 mg/kg, loperamide 5 mg/kg i.v. alone, read-out: Brain concentration of loperamide, mean), 73 ng/g; in data set [1] (FVB, mouse, in vivo, loperamide 5 mg/kg i.v. with elacridar TPGS NP 100 mg/kg p.o. about 6 h before, read-out: Brain concentration of loperamide, mean), 3700 ng/g. Also, the “Brain concentration of loperamide, individual animals” value in data set [1] (loperamide 5 mg/kg i.v. alone) is 83.8 ng/g and 79.4 ng/g and 84.1 ng/g and 78.1 ng/g and 41.6 ng/g; in data set [1] (setting [3]), 4376.5 ng/g and 4288.7 ng/g and 3981.2 ng/g and 2933.5 ng/g. The “Brain concentration of loperamide, mean” value came to 73.4 ng/g in data set [1] (loperamide 5 mg/kg i.v. alone) and 3697.8 ng/g in data set [1] (setting [3]). The “increase of brain penetration by concomitant elacridar NP” value in data set [1] (with vs without elacridar TPGS NP 100 mg/kg p.o., brain at 1 h) is recorded as 50 fold.
imatinib: the “Imatinib plasma concentration, individual animals” value in the data set “in vivo” (imatinib alone, 5 min) is 49100 ng/mL and 50400 ng/mL and 38200 ng/mL and 61300 ng/mL and 48900 ng/mL; in the data set “in vivo” (imatinib alone, 30 min), 6590 ng/mL and 11500 ng/mL and 7690 ng/mL and 13200 ng/mL and 11600 ng/mL; in the data set “in vivo” (imatinib alone, 60 min), 1920 ng/mL and 1260 ng/mL and 2350 ng/mL and 2050 ng/mL and 2760 ng/mL; in the data set “in vivo” (imatinib with elacridar, 5 min) it was 90800 ng/mL and 43500 ng/mL and 50000 ng/mL and 34400 ng/mL and 37900 ng/mL; in “in vivo” (setting [4]) it was 11000 ng/mL and 7860 ng/mL and 11700 ng/mL and 8910 ng/mL and 12600 ng/mL; in “in vivo” (setting [5]), 3630 ng/mL and 5580 ng/mL and 3840 ng/mL and 4710 ng/mL and 4100 ng/mL. Moreover, the “Imatinib plasma concentration, mean” value in “in vivo” (imatinib alone, 5 min) was determined as 49580.0 ng/mL; in “in vivo” (imatinib alone, 30 min) it was 10116.0 ng/mL; in the data set “in vivo” (imatinib alone, 60 min), 2068.0 ng/mL; in the data set “in vivo” (imatinib with elacridar, 5 min), 51320.0 ng/mL; in “in vivo” (setting [4]), 10414.0 ng/mL; in “in vivo” (setting [5]) it was 4372.0 ng/mL. In addition, the complications of dosing result in data set [1] (mouse, in vivo, iv) is given as “without complications”.

The values are drawn from patent publication US20220133679A1, “EFFLUX INHIBITOR COMPOSITIONS AND METHODS OF TREATMENT USING THE SAME” (Izumi Technology, LLC, priority 2012, published 2022).
